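Exposure lasted 48 hours, with cells grown in 96-well plates and compounds tested at five concentrations. GI50 = concentration required for 50% inhibition of growth. TGI: concentration producing complete growth inhibition.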 *1 amine or outer side, *2 acyl side, *3 side chain or, on linkers, in order; H or OH if unused. Where a SMILES comes first, the peptide text is derived from it. Bridges are numbered along the chain shown (N, C = ends). Roman numbers before positions name the chains, in order. [ ]: non-standard residue; d: D form. ξ: configuration not given here. X54 = N=C(N)NCCC[C@@H](NC(=N)CCCCCCC(=N)N[C@H](CCCNC(=N)N)C(=O)[*:2])C(=O)[*:1]; dIgl = N[C@@H](C(=O)O)C1Cc2ccccc2C1; Hyp = O=C(O)[C@@H]1C[C@@H](O)CN1; ξIgl = NC(C(=O)O)C1Cc2ccccc2C1; ξOic = O=C(O)C1CC2CCCCC2N1; ξR = N=C(N)NCCCC(N)C(=O)O; ξP = O=C(O)C1CCCN1; ξS = NC(CO)C(=O)O
What was measured:
Assay in all cases: NCI anticancer screen, dose series, 48 h
[1] = test system: UACC-257 melanoma
[2] = test system: UACC-62 melanoma
[3] = test system: NCI-H23 lung
[4] = test system: HT29 colon
[5] = test system: HCT-15 colon
[6] = test system: CAKI-1 renal
[7] = test system: HOP-62 NSCLC
[8] = test system: DU-145 prostate
[9] = test system: 786-0 renal
[10] = test system: SK-MEL-2 melanoma
[11] = test system: NCI-H226 lung

Compound | TGI [1] [µM] | TGI [2] [µM] | TGI [3] [µM] | TGI [4] [µM] | TGI [5] [µM] | TGI [6] [µM] | TGI [7] [µM] | TGI [8] [µM] | TGI [9] [µM] | TGI [10] [µM] | TGI [11] [µM] | GI50 [1] [µM] | GI50 [2] [nM] | GI50 [3] [µM] | GI50 [4] [nM] | GI50 [5] [µM] | GI50 [6] [nM] | GI50 [11] [µM] | GI50 [8] [µM] | GI50 [10] [nM]
O[C@@H]1C[C@H](Cl)c2c(Cl)sc(Cl)c21 | > 100 | > 100 | > 100 | > 100 | > 100 | > 100 | > 100 | > 100 | > 100 | > 100 | – | – | – | – | – | – | – | – | – | –
CC1=NN(C(=O)Cc2ccccc2)C(=O)/C1=C\c1ccc([N+](=O)[O-])cc1 | > 100 | > 100 | > 100 | > 100 | > 100 | > 100 | > 100 | – | > 100 | > 100 | > 100 | – | – | – | – | – | – | – | – | –
COc1ccc2c(c1)CC[C@@H]1C2CC[C@]2(C)C(=O)N(CCN(C)C)C(=O)CC12 (stereo partly specified) | > 100 | > 100 | > 100 | > 100 | – | > 100 | > 100 | > 100 | > 100 | – | > 100 | – | – | – | – | – | – | – | – | –
CN(C)C(=O)Oc1c(Br)cc(Br)cc1C(=O)OCc1ccccc1 | 60.2 | 39.4 | > 72.9 | 19.2 | > 81.7 | 68.6 | > 71.2 | – | – | > 71.2 | > 77.3 | – | – | – | – | – | – | – | – | –
O=c1[nH]c2ccccc2c(O)c1Cc1ccccc1 | > 100 | – | > 100 | > 100 | > 100 | > 100 | > 100 | > 100 | > 100 | – | > 100 | – | – | – | – | – | – | – | – | –
CCn1c2nc(=O)n(CCCCCCCCSC(c3ccccc3)(c3ccccc3)c3ccccc3)c(=O)c-2nc2ccccc21 | > 100 | – | > 100 | 18.1 | > 100 | > 100 | > 100 | > 100 | > 100 | > 100 | > 100 | – | – | – | – | – | – | – | – | –
Nc1nc(Cl)cc(OCC2(CO)CCCC2)n1 | > 100 | – | > 100 | > 100 | > 100 | – | > 100 | > 100 | > 100 | – | > 100 | – | – | – | – | – | – | – | – | –
O=c1cc(-c2ccccc2)[nH]c2ncccc12 | > 100 | – | – | 0.426 | – | > 100 | > 100 | > 100 | > 100 | – | – | – | – | – | – | – | – | – | – | –
CC[C@@]1(O)C[C@H](OC2CC(N(C)C)C(O)C(C)O2)c2c(cc3c(c2O)C(=O)c2c(O)ccc(O)c2C3=O)[C@H]1C(=O)OC (stereo partly specified) | 0.317 | 0.252 | 0.599 | 0.559 | 0.976 | 0.25 | 0.672 | – | – | 0.354 | 0.455 | – | – | – | – | – | – | – | – | –
CCC(C)(C)c1cc(O)c(C(C)(C)CC)cc1O | 12.1 | 6.84 | 12.4 | 5.27 | 15.1 | 7.74 | – | 17.1 | – | 4.33 | 15.2 | 3.44 | 2280 | 3.18 | 2130 | 3.66 | 2440 | 3.63 | 4.39 | 1850
CC(=O)O[C@H]1C(=O)[C@@]2(C)[C@H]([C@H](OC(=O)c3ccccc3)[C@]3(O)C[C@H](OC(=O)[C@H](O)[C@@H](NC(=O)c4ccccc4)c4ccc5ccccc5c4)C(C)=C1C3(C)C)[C@]1(OC(C)=O)CO[C@@H]1C[C@@H]2O | 8.22 | 12.7 | > 45.4 | 1.96 | 8.4 | > 41 | 0.362 | – | 8.59 | 0.173 | – | – | – | – | – | – | – | – | – | –
CC(C)=CC1C(C(=O)Oc2ccccc2C(C)C)C1(C)C (stereo unspecified) | 44.2 | > 100 | 65.4 | 36.9 | 53.1 | > 100 | 85.5 | > 100 | 42.5 | 33.1 | – | – | – | – | – | – | – | – | – | –
N=C(N)NCCCC(NC(=O)C1CC2CCCCC2N1C(=O)[C@H](NC(=O)C(CO)NC(=O)C(NC(=O)CNC(=O)[C@@H]1C[C@@H](O)CN1C(=O)C1CCCN1C(=O)C(CCCNC(=N)N)NC(=O)[C@@H](CCCNC(=N)N)NC(=N)CCCCCCC(=N)N[C@H](CCCNC(=N)N)C(=O)NC(CCCNC(=N)N)C(=O)N1CCCC1C(=O)N1C[C@H](O)C[C@H]1C(=O)NCC(=O)NC(C(=O)NC(CO)C(=O)N[C@@H](C(=O)N1C(C(=O)NC(CCCNC(=N)N)C(=O)O)CC2CCCCC21)C1Cc2ccccc2C1)C1Cc2ccccc2C1)C1Cc2ccccc2C1)C1Cc2ccccc2C1)C(=O)O (stereo partly specified) (I: [ξR][ξP][Hyp]G[ξIgl][ξS][dIgl][ξOic][ξR]-OH / II: [ξR][ξP][Hyp]G[ξIgl][ξS][dIgl][ξOic][ξR]-OH; linker I:N-II:N via X54) | > 10 | 3.72 | 4.17 | 2.12 | 4.64 | 3.71 | 5.64 | 3.06 | 5.07 | 6.77 | – | – | – | – | – | – | – | – | – | –
Fc1ccc(-c2sc(-c3ccsc3)cc2Cc2ccsc2)cc1 | > 10 | > 10 | > 10 | > 10 | > 10 | > 10 | > 10 | > 10 | > 10 | – | – | – | – | – | – | – | – | – | – | –
CSc1ncc2c(n1)-c1ccccc1OC2N1CCOCC1 (stereo unspecified) | > 100 | > 100 | > 100 | > 100 | > 100 | > 100 | – | > 100 | > 100 | > 100 | > 100 | – | – | – | – | – | – | – | – | –
CC(=O)OCC1OC(N2C(=O)NC(=O)C3C=C4CCCCC4=CC32)CC1OC(C)=O (stereo unspecified) | > 100 | > 100 | – | > 100 | > 100 | – | > 100 | > 100 | > 100 | > 100 | > 100 | – | – | – | – | – | – | – | – | –
COc1cc(C2c3cc4c(cc3OC(NNc3ccccc3)C2C)OCO4)cc(OC)c1OC (stereo unspecified) | > 100 | > 43.5 | > 100 | 6.61 | – | > 73 | 10.4 | > 31.2 | 12.8 | 38.6 | 6.92 | – | – | – | – | – | – | – | – | –
Nc1nc(NCCOCP(=O)(O)O)c([N+](=O)[O-])c(=O)[nH]1 | > 100 | > 100 | > 100 | > 100 | – | – | > 100 | – | > 100 | > 100 | > 100 | – | – | – | – | – | – | – | – | –
O=C1c2cc(I)ccc2N2CCN=C2N1Cc1ccccc1 | > 100 | – | > 100 | > 100 | > 100 | > 100 | > 100 | > 100 | > 100 | > 100 | > 100 | – | – | – | – | – | – | – | – | –
CCc1cc(C)cc2[n+]1CC=C2 | 39.7 | – | 53.8 | 75.2 | – | > 100 | 51.3 | – | > 100 | 40.2 | 80.8 | – | – | – | – | – | – | – | – | –

From PubChem BioAssay (NCI)
